Test results taken from patent publication US20110212111A1, “MHC II Associated Protein and Uses Thereof” (priority 2008, published 2011).

What was measured:
[1] = tested on: MPYS; test: MPYS oxidation (disulfide bonded homodimer, non-reducing SDS-PAGE); assay type: cell-based; conditions: ER stress inducer; cells not given
Excerpt: (§1) It was also noticed that after the thiol reductase reaction, a large portion of MPYS occurs in a ˜80 kDa SDS resistant form consistent with the predicted size of a homodimer. The present inventors have shown that MPYS is dimeric in mouse B cells. To determine whether MPYS occurs as a non-disulfide-bonded dimer that becomes […] disulfide bonded upon oxidation, the chemical crosslinker Dithiobis[succinimidyl propionate] (DSP) was used to detect the endogenous MPYS complex in mouse splenocytes. In non-reducing SDS-PAGE, DSP treated MPYS ran as a single band of ˜80 kDa, the predicted size of a MPYS homodimer while non-DSP treated mock (or DTT treated) MPYS ran at the monomer size (˜40 kDa). It was also discovered that Flag-tagged MPYS associates with HA-MPYS when the two were co-expressed. Thus, the ˜80 kDa band seen on the non-reducing gels is a MPYS homodimer. Since this homodimer is sensitive to SDS, its dimerization is not mediated by intermolecular disulfide bonds.
(§2) The appearance of the SDS resistant MPYS homodimer after the thiol reductase reaction indicated the formation of intermolecular disulfide bonds in homodimeric MPYS is a consequence of oxidation. […] […] H2O2) and the thiol reductase reaction can lead to formation of intermolecular disulfide bonds in homodimeric MPYS.

[2] = molecular target: T1, MPYS (Mus musculus, UniProt Q3TBT3); test: as above; assay type: cell-based; conditions: RAW264.7 cells
T1 construct: used to detect the endogenous MPYS complex in mouse splenocytes; endogenous in cells; host or cells: mouse splenocytes; K46 mouse B lymphoma cells; RAW264.7 mouse macrophage cells
T1 sequence (Q3TBT3 1-378): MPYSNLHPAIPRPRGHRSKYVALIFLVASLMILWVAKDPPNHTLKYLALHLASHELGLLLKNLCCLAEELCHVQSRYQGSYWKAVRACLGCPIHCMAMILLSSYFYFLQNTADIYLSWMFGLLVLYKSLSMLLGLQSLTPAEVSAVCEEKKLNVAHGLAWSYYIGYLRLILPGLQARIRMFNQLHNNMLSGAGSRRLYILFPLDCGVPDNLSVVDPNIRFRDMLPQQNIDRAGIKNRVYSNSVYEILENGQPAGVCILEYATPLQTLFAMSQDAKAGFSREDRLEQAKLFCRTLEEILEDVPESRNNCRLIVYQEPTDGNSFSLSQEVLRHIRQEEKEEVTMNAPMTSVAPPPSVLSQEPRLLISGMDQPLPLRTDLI
Excerpt: as §1, §2

[3] = tested on: K46 B lymphoma cells; test: MHC II mAb-induced cell death of K46 cells (Annexin V/PI, DiOC6/PI flow cytometry); assay type: cell-based, murine; conditions: for effect of inhibitor on MHC II mAb-induced death response: K46 cells pre-treated with inhibitor
Description: K46 cells were suspended in 5% complete IMDM media at a concentration of 10^6 cells/mL and then transferred to round bottomed 96-well plates (100 μL/well) and cultured at 37° C. for 1 h. Biotinylated MHC II mAbs were added into the wells and incubated for 12 min. Avidin was then added into the wells and cells were cultured for the indicated time. PI (2 μg/mL) and Annexin V-Alexa Fluor 488 (1 μL/100 μL cells) (A-13201, Molecular Probes), or DiOC6 (50 nM) and PI (2 μg/mL) was used to measure apoptotic or dead cells by flow cytometry.
(§3) ERK inhibitor PD98059 (Calbiochem, 513000), AKT inhibitor LY294002 (Calbiochem, 440202), and p38 inhibitor SB203580 (Calbiochem, 559389) were used in this study. The inhibitor was added to cells at 5×10^6 cells/mL and cultured for 4 hrs. Samples were then split into 1×10^6 cells/mL and cell death was induced and measured as above. To inhibit src kinase, PP2 (Calbiochem, 529573) was added into cells and cultured for 30 min before cell death was induced as above.

[4] = tested on: ERK; test: MHC II induced ERK activation (phospho-ERK blotting); assay type: cell-based, murine; conditions: K46 cells; PD98059 at 50 μM
Description: as §3
(§4) Cells were lysed in 0.33% CHAPS buffer (150 mM NaCl, 10 mM Tris pH 7.5, 10 mM sodium pyrophosphate, 2 mM Na3VO4, 10 mM NaF, 0.4 mM EDTA, 1 mM PMSF, and 1 μg/mL each of aprotinin, α1-antitrypsin, and leupeptin) (40×10^6/mL) at 4° C. for 1.5 h or overnight. Cell lysates were centrifuged at 12,000 g at 4° C. for 20 min. Supernatants were analyzed on a 10% SDS-PAGE gel. The gel was transferred to a PVDF membrane and proteins were probed with Abs and visualized using an ODYSSEY Infrared Imaging System (LI-COR). […]

[5] = tested on: tyrosine phosphorylation in K46 cells; test: MHC II mAb-induced tyrosine phosphorylation (immunoblotting); assay type: cell-based, murine
Description: as §3, §4

[6] = tested on: calcium mobilization in K46 cells; test: MHC II mAb-induced calcium mobilization (Indo-1AM); assay type: cell-based, murine
Description: Cells were loaded with Indo-1AM (Molecular Probes, Eugene, Oreg.) for 30 min at 37° C. as recommended by the manufacturer. Anti-MHC II mAb (10 μg/mL) was then added to the suspension for another 12 min at 37° C. before cells were washed and suspended in IMDM supplemented with 2% FCS. The cells (10^6 cells/mL) were analyzed before and after stimulation via cros slinking with avidin (20 μg/mL). Data were analyzed by Flow-Jo software (Tree Star, Inc., San Carlos, Calif.).

[7] = tested on: IFNβ promoter; test: MPYS induced IFNβ reporter activation in TLR4-293 cells; assay type: cell-based, human; conditions: TLR4-293T / TLR4-293GT cells
Description: (§5) 293 GT cells and their derivatives (˜1×10^5) were seeded in 24-well dishes and transfected the following day using Effectene transfection reagent kit (Qiagen, cat #301427). Reporter assays were performed as previous described. Id.
(§6) Cells were seeded in 24-well dishes (˜1×10^5/ml) and transfected the following day using Effectene transfection reagent kit (Qiagen, 301427). Reporter assays were performed as previous described by Bin et al., in J Biol. Chem., 2003, 278, 24526-24532. All experiments were repeated at least three times and results are representative.

[8] = tested on: NFκB; test: MPYS induced NFκB reporter activation in TLR4-293 cells; assay type: cell-based, human; conditions: TLR4-293T / TLR4-293GT cells
Description: as §5, §6

[9] = tested on: RAW264.7 macrophage cells; test: Listeria monocytogenes induced IFNβ response in RAW264.7 cells (IFNβ-luc); assay type: cell-based, mouse
Description: RAW264.7, K46 B lymphoma cells and the 293GT cells were maintained in IMDM supplemented with 5% FBS. 293MT cells were maintained in DMEM (GIBCO, cat: 11965), 5% FBS (Biosource, 200p-500HI), sodium pyruvate (GIBCO 11360, 1 mM), HEPES buffer (GIBCO 15630-080, 10 mM) and 2-ME (50 μM) (Life Technologies, Gaithersburg Md.). The RAW264.7 cells stably expressing the IFNβ-Luciferase construct were generated by co-transfecting RAW264.7 cells with pGL3-IFNβ-Luciferase (Promega) and p-Puromycin plasmids (Clonetch). The stable cell line was established under puromycin selection (4 μg/ml).
RAW264.7 cells expressing the IFNβ-luc construct were infected with Listeria monocytogenes strain 10403S at multiplicity of five bacteria/cell. Cells were washed at 1 h after infection. Live bacterial were killed by addition of gentamicin. Whole cell lysates were prepared 5.5 h after infection. Luciferase activity was read with BD Monolight kit and Synergy reader.

[10] = tested on: TLR4-293T cells; test: Measurement of intracellular ROS (H2DCFDA flow cytometry); assay type: cell-based, human
Description: Cells were washed and suspended in PBS, and then culture with H2DCFDA (5 μM) (Invitrogen, D399) for 20 min at 37° C. They were then washed in PBS and the fluorescence was measured by flow cytometry.

## C[C@H]1CCC/C=C/[C@@H]2C[C@H](O)C[C@H]2[C@H](O)/C=C/C(=O)O1 [Brefeldin A]
[1]
  formation of oxidized MPYS: generated oxidized MPYS

## OO [H2O2]
[2]
  formation of oxidized MPYS: led to the formation of oxidized MPYS

## O=c1cc(N2CCOCC2)oc2c(-c3ccccc3)cccc12 [LY294002]
[3]
  effect of inhibitor on MHC II mAb-induced death response: no significant effect

## COc1cccc(-c2cc(=O)c3ccccc3o2)c1N [PD98059]
[3]; inhibitor at 50 μM, K46 cells
  inhibition of MHC II mediated cell death: about 50%
[4]
  effect on MHC II induced ERK activation: did not completely inhibit

## CC(C)(C)n1nc(-c2ccc(Cl)cc2)c2c(N)ncnc21 [PP2]
[3]
  effect of inhibitor on MHC II mAb-induced death response: remained largely intact
[5]; K46 cells
  effect on MHC II mAb-induced tyrosine phosphorylation: blocked
[5]; after MHC class II aggregation
  effect on MPYS tyrosine phosphorylation and recruitment of SHP-1 and SHIP-1: blocked
[6]
  effect on MHC II mAb-induced calcium responses: blocked
[4]
  effect on MHC II induced ERK activation: neither MHC class II-mediated activation of ERK nor apoptosis was inhibited

## C[S+]([O-])c1ccc(-c2nc(-c3ccncc3)c(-c3ccc(F)cc3)[nH]2)cc1 (centres unmarked) [SB203580]
[3]
  effect of inhibitor on MHC II mAb-induced death response: no significant effect

## C=C(C)[C@H]1Cc2c(ccc3c2O[C@@H]2COc4cc(OC)c(OC)cc4[C@@H]2C3=O)O1 [rotenone]
[7]
  effect on MPYS induced IFNβ reporter activation: completely inhibited
[8]
  effect on MPYS induced NFκB reporter activation: completely inhibited
[9]
  effect on Listeria monocytogenes induction of IFNβ production: significantly inhibited
[2]
  formation of oxidized MPYS: led to the formation of oxidized MPYS
[10]
  cellular ROS level: increased cellular ROS level

## Poly(I:C)
[2]
  formation of oxidized MPYS: did not generate oxidized MPYS
